Experiments:
[1] = target: T1, Angiotensin II receptor (AT-1) type-1 (Rattus norvegicus, UniProt P29089+P25095); assay: Binding affinity towards Angiotensin II receptor, type 1 in rat liver membrane using [125I]-angiotensin II (0.1 nM); format: cell membranes
T1 sequence (P29089 whole entry): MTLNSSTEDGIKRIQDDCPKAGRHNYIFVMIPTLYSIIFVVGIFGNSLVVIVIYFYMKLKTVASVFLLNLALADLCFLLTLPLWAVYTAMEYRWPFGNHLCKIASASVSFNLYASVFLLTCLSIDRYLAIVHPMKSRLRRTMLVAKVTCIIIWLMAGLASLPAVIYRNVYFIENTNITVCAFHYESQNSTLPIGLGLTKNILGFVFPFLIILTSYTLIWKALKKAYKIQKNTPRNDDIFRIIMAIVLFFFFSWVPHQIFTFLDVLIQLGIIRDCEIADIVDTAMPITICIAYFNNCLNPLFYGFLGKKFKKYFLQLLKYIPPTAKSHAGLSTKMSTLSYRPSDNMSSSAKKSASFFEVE
T1 sequence (P25095 whole entry): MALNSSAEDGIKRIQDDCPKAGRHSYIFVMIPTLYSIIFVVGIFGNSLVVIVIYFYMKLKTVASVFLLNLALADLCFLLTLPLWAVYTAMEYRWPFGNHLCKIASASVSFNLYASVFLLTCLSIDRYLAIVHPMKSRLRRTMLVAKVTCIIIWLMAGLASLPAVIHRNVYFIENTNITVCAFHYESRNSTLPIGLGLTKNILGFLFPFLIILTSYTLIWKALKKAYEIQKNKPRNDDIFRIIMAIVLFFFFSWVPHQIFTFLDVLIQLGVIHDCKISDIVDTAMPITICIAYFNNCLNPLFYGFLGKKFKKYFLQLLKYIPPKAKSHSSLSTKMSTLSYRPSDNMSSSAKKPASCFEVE

Oryctolagus cuniculus = species: Oryctolagus cuniculus; assay: Inhibitory activity against contractile response to angiotensin II (10 nM) of rabbit aortic rings; format: functional; conditions: Aorta

IC50 [1] [nM]	IC50 (Oryctolagus cuniculus) [nM]	Structure (SMILES)
25	140	CCCCC1=NC2(CCCC2)C(=O)N1Cc1ccc(-c2ccccc2C2=NOC(=O)C2)cc1
60	67	CCCCC1=NC2(CCCC2)C(=O)N1Cc1ccc(-c2ccccc2-c2nnc(O)o2)cc1
230	–	CCCCC1=NC2(CCCC2)C(=O)N1Cc1ccc(-c2ccccc2-c2nc(=O)[nH]o2)cc1

The remaining lines, values behind:

Structure (SMILES)	IC50 [1] [nM]	IC50 (Oryctolagus cuniculus) [nM]
CCCCC1=NC(C)(C2CCCCC2)C(=O)N1Cc1ccc(-c2ccccc2-c2n[nH]c(O)n2)cc1 (stereo not drawn)	100	–
CCCCC1=NC2(CCCC2)C(=O)N1Cc1ccc(-c2ccccc2-c2noc(O)n2)cc1	1.7	2.6
CCCCC1=NC2(CCCC2)C(=O)N1Cc1ccc(-c2ccccc2-n2oc(=O)[nH]c2=O)cc1	1.4	2.8
CCCCC1=NC(C)(C2CCCCC2)C(=O)N1Cc1ccc(-c2ccccc2-c2noc(O)n2)cc1 (stereo not drawn)	0.7	0.64
CCCCC1=NC2(CCCC2)C(=O)N1Cc1ccc(-c2ccccc2-c2nnn[nH]2)cc1 [IRBESARTAN]	1.3	–

— ChEMBL document CHEMBL1127874, “Development of tetrazole bioisosteres in angiotensin II antagonists” (Bioorg Med Chem Lett, 1994)
